Experimental data from patent US11118208B2, “Methods for modulating protein galactosylation profiles of recombinant proteins using peracetyl galactose” (ARES TRADING S.A., priority 2016, dated 2021).
Where “and” joins values, the source holds several entries; their conditions need not be identical. Equal values may be shown once.

Key:
Format in all cases: cell-based, Chinese hamster
[1] = test system: mAb1 cells (CHO-S cells expressing IgG1 mAb1); test: Fed-batch culture of mAb1 cells in deepwell plates (DWP): viable cell density, viability, titer
Procedure: (§1) First assays were performed with an antibody produced in a CHO cell line: CHO-S cells expressing IgG1 mAb1, herein “Cells mAb1” or “mAb1 cells”. “mAb1” is a fully human monoclonal antibody directed against a soluble protein. Its isoelectric point (pI) is about 8.20-8.30.
(§2) Cells expressing mAb1 were inoculated at 0.3×10^6 cells per millilitre (mL), whereas Cells expressing mAb2 were inoculated at 0.2×10^6 cells per millilitre (mL).
(§3) For examples 1-3: A serum-free chemically defined culture medium was used. It was used as it is, or it was supplemented with α- or β-2-F-peracetyl galactose (herein α- or β-2F-pGal; Biosynth & AX Molecules) at different concentrations (0-200 μM before seeding). The concentrations indicated on FIGS. 1, 2, 3 and 4 are the concentrations in α- or β-2F-pGal in the culture medium at day 0, just before the inoculation. The culture medium was fed, on a regular basis, with a chemically defined feed medium, as well as with glucose in order to keep said glucose level in the range of >0 to about 8 g/L (feeds are done at days 3, 5, 7, 10 and 12).
(§4) The cultures were performed in deepwell plates (DWP) with a working volume of 450 μL. They were incubated at 36.5° C., 5% de CO2, 90% humidity and shaken at 320 rpm. Each of the fed-batch culture lasted 14 days. It is well known that experiments in DWP are artificial, although they allow a first screening of culture conditions. In order to confirm that the results obtained in DWP were reproducible at higher scale, similar experiments were also run in TubeSpin® (also called herein shake tubes or ST), with a working volume of 30 mL cell culture (same culture condition than for deepwell plates).
For DWP experiments, viable cell density and viability were measured with the Guava easyCyte® flow cytometer. Antibody titers were measured with the fortéBIO Octet®.
(§5) The cells were cultivated and the results analysed as disclosed in the material and method section. It is noted that the controls (or control conditions) according to the present invention correspond to cells grown without peracetyl galactose.

[2] = test system: mAb1 cells (CHO-S cells expressing IgG1 mAb1); test: Fed-batch culture of mAb1 cells in TubeSpin (shake tubes): viable cell density, viability, titer
Procedure: as §1, §2, §3, §4
(§6) For TubeSpin® experiments, viable cell density and viability were measured with the ViCell®. Antibody titers were measured using Biacore®.

[3] = test system: galactosylation of mAb2 antibody (mAb2 cells); test: Glycosylation profile of mAb2 produced in TubeSpin (2AB-UPLC)
Procedure: (§7) Additional assays were performed with another antibody also produced in another CHO cell line: CHO-Ki cells expressing IgG1 mAb2, herein “Cells mAb2” or “mAb2 cells”. “mAb2” is a humanized monoclonal antibody directed against a receptor found on the cell membrane. Its isoelectric point (pI) is about 9.30.
as §3, §4
(§8) Glycosylation profiles were established by capillary gel electrophoresis with laser-induced fluorescence (CGE-LIF; for DWP and for Shake tubes experiments) or by Ultra Performance Liquid Chromatography-2-amino-benzamide labelling technique (2AB-UPLC; for Shake tubes experiments). Groups of glycans were defined as thereafter in Table 3.

[4] = test system: galactosylation of mAb1 antibody (mAb1 cells); test: Glycosylation profile of mAb1 produced in TubeSpin (CGE-LIF); conditions: for monogalactosylated form changed by (Example 2.2) / total level of galactosylation decreased by (Example 2.2): shake tubes, CGE-LIF
Procedure: as §1, §3, §4, §8

[5] = test system: mAb2 cells (CHO-Ki cells expressing IgG1 mAb2); test: Fed-batch culture of mAb2 cells in TubeSpin: viable cell density, viability, titer
Procedure: as §7, §2, §3, §4, §6

[6] = test system: galactosylation of mAb1 antibody (mAb1 cells); test: Glycosylation profile of mAb1 produced in DWP (CGE-LIF)
Procedure: as §1, §3, §4, §8, §5

Structure (SMILES): CC(=O)OC[C@H]1OC(OC(C)=O)[C@H](F)[C@@H](OC(C)=O)[C@H]1OC(C)=O (stereo in doubt) [α-2F-pGal, α/β-D-galactopyranose, 2-deoxy-2-fluoro-,1,3,4,6-tetraacetate]
- decrease of titers comparing to control ([1]; concentration higher than 60 μM): about 1.2 factor
- impact on protein titre ([1]; concentrations between 30 and 60): no impact on protein titre
- impact on cell growth ([1]; concentrations of about 60 μM and higher): negative impact on cell growth
- impact on cell growth until the end of culture ([1]; concentrations up to 30 μM in medium): no impact on cell growth
- protein titer compared to the control ([1]; media concentration up to 60 μM, day 10 and day 14): stays above the protein titer of the control
- impact on cell density, cell viability and protein titer ([1]; media concentrations below 30 μM): do not impact
- product titer at the end of the culture (day 14) ([2]; 30 μM, shake tubes): 2050 mg/L
- product titer at the end of the culture (day 14) ([2]; 60 μM, shake tubes, listed as α-2F-p-galactose): 2130 mg/L
- product titer at the end of the culture (day 14) ([2]; 90 μM, shake tubes): 2225 mg/L
- growth inhibitory effect in the first part of the culture ([2]; 30, 60 and 90 μM, shake tubes): no growth inhibitory effect
- cell densities compared to control from day 10 until the end of the culture ([2]; 30 and 90 μM, shake tubes): slightly lower
- impact on cell growth or protein titer until the end of culture ([2]; any one of 30, 60 and 90 μM, TubeSpin): no negative impact on cell growth or protein titer
- effect on cell culture performance ([2]; between 0 and 90 μM α-2F-p-galactose, 60 μM β-2F-p-galactose, shake tubes): No detrimental effect
- protein titer compared to the control at culture days 5, 7, 10, 12 and 14 ([2]; α 30-90 μM, β 60 μM, shake tubes, listed as α-2F-p-galactose): comparable at all time points
- effect on the overall fucosylated species [3]: +0.5%
- FA2G1 decrease (absolute change) ([3]; 30 μM): −0.85%
- change of the FA2G2 abundance ([3]; 30 μM): −0.09%
- reduction of galactosylation (absolute change) ([3]; 30 μM): −0.95%
- FA2G1 decrease (absolute change) ([3]; 60 μM): −1.85%
- change of the FA2G2 abundance ([3]; 60 μM): −0.19%
- reduction of galactosylation (absolute change) ([3]; 60 μM): −2.05%
- FA2G1 decrease (absolute change) ([3]; 90 μM): −1.2%
- change of the FA2G2 abundance ([3]; 90 μM): −0.19%
- reduction of galactosylation (absolute change) ([3]; 90 μM): −1.4%
- G1F absolute change compared to the control ([4]; 30 μM, TubeSpin): 1.9%
- G2F absolute change compared to the control ([4]; 30 μM, TubeSpin): 0.11%
- relative decrease of galactosylated N-oligosaccharides compared to control ([4]; 30 μM, TubeSpin): about 16%
- monogalactosylated form changed by (Example 2.2) ([4]; 30 μM): −1.9%
- total level of galactosylation decreased by (Example 2.2) ([4]; 30 μM): 2.0%
- G1F absolute change compared to the control ([4]; 60 μM, TubeSpin): 4.3%
- G2F absolute change compared to the control ([4]; 60 μM, TubeSpin): 0.27%
- absolute change of galactosylated N-oligosaccharides compared to the control ([4]; 60 μM, TubeSpin): 4.61% and ~4.5%
- relative decrease of galactosylated N-oligosaccharides compared to control ([4]; 60 μM, TubeSpin): ~37%
- total level of galactosylation decreased by (Example 2.2) ([4]; 60 μM): 4.6%
- monogalactosylated form changed by (Example 2.2) ([4]; 60 μM, listed as α-2F-peracetyl-galactose): −4.3%
- G1F absolute change compared to the control ([4]; 90 μM, TubeSpin): 4.3%
- G2F absolute change compared to the control ([4]; 90 μM, TubeSpin): 0.33%
- relative decrease of galactosylated N-oligosaccharides compared to control ([4]; 90 μM, TubeSpin): ~36%
- monogalactosylated form changed by (Example 2.2) ([4]; 90 μM): −4.3%
- total level of galactosylation decreased by (Example 2.2) ([4]; 90 μM): −4.5%
- titer at day 7 ([5]; 30 μM): ~720 mg/L
- titer at day 14 ([5]; 30 μM): 3400 to 3420 mg/L
- titer at day 7 ([5]; 60 μM): ~720 mg/L
- titer at day 14 ([5]; 60 μM): 3400 to 3420 mg/L
- titer at day 7 ([5]; 90 μM): about 670 mg/L
- titer at day 14 ([5]; 90 μM): ~3200 mg/L
- peak viable cell density ([5]; 90 μM, shake tubes): 10.0 ×106 viable cells/mL
- productivity ([5]; 30 and 60 μM): globally unchanged
- overall viable cell densities compared to the control ([5]; 30 and 60 μM, shake tubes): comparable to the control
- cell viability at day 7 ([5]; entire supplement concentration range): about 97%
- viabilities compared to the control condition ([5]; entire supplement concentration range (30-90 μM)): comparable to the control condition
- G1F absolute change compared to the control ([6]; 30 μM): 1.1%
- G2F absolute change compared to the control ([6]; 30 μM): 0.2%
- absolute change in galactosylated N-oligosaccharide compared to the control ([6]; 30 μM): 1.3%
- relative decrease of galactosylated N-oligosaccharides compared to control ([6]; 30 μM): 17%
- galactosylated N-oligosaccharides of the protein ([6]; 30 μM in medium): 8.3%
- G1F absolute change compared to the control ([6]; 60 μM): 2.5%
- G2F absolute change compared to the control ([6]; 60 μM): 0.3%
- absolute change in galactosylated N-oligosaccharide compared to the control ([6]; 60 μM): 2.8%
- relative decrease of galactosylated N-oligosaccharides compared to control ([6]; 60 μM): 32%
- galactosylated N-oligosaccharides of the protein ([6]; 60 μM in medium): 6.8%
- G1F absolute change compared to the control ([6]; 120 μM): 3.1%
- G2F absolute change compared to the control ([6]; 120 μM): 0.35%
- absolute change in galactosylated N-oligosaccharide compared to the control ([6]; 120 μM): 3.5%
- relative decrease of galactosylated N-oligosaccharides compared to control ([6]; 120 μM): 40%
- galactosylated N-oligosaccharides of the protein ([6]; 120 μM in medium): 6.0%
- G1F absolute change compared to the control ([6]; 200 μM): 4.4%
- G2F absolute change compared to the control ([6]; 200 μM): 0.4%
- absolute change in galactosylated N-oligosaccharide compared to the control ([6]; 200 μM): 4.8%
- relative decrease of galactosylated N-oligosaccharides compared to control ([6]; 200 μM): 52%
- galactosylated N-oligosaccharides of the protein ([6]; 200 μM in medium): 4.8%
- inhibition effect on galactosylation ([6]; below 30): neither α- or β-2F-pGal does have a significant inhibition effect on galactosylation
- inhibition effect on galactosylation ([6]; concentrations higher than 30 μM): a significant inhibition effect is observed
